Patent US11827596B2, “Thyromimetics” (Autobahn Therapeutics, Inc., priority 2018, dated 2023)

Experiments:
TRα = target: T1, TRα (Homo sapiens, UniProt P10827); experiment: Thyroid-hormone reporter-gene assay (Gal4-TR hybrid, luciferase), TRα; type: cell-based; conditions: HEK293-derived reporter cells, 24 hr incubation
T1 construct: The firefly luciferase reporter under the Gal4 UAS is a separate reporter gene
T1 sequence (P10827 163-410 isoform P10827-2 limits assumed): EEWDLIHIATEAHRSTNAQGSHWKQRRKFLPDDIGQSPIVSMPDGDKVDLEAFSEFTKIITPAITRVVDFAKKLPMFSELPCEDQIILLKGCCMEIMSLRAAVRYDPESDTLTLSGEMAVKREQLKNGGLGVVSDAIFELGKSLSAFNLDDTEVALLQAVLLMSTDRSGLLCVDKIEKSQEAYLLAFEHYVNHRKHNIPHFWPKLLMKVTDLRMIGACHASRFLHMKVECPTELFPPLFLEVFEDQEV
Experimental: (§1) Reporter cells used in the assays express a TR-receptor hybrid (either TRα or […]) in which the native N-terminal DNA binding domain (DBD) has been replaced with that of the yeast Gal4 DBD. The reporter gene, firefly luciferase, is functionally linked to the Gal4 upstream activation sequence (UAS). Both cell lines were derived from human embryonic kidney (HEK293).
(§2) Step 1: A suspension of reporter cells was prepared in cell recovery medium containing 10% charcoal-stripped FBS, and dispensed into assay plates. The plates were pre-incubated for 6 hours in a cell culture incubator (37° C./5% CO2/85% humidity).
(§3) These Intermediate Stocks were subsequently diluted directly into compound screening medium containing 10% charcoal-stripped FBS to generate “2×-concentration” treatment media (containing 0.2, 0.4 or 0.8% DMSO).
(§4) Step 3: At the end of the pre-incubation period, culture media were discarded from the assay plates, and all wells received 100 μl of compound screening medium. 100 μl of each of the previously prepared “2×-concentration” treatment media were dispensed into duplicate assay wells, thereby achieving the desired final treatment concentrations. The final concentration of DMSO in all assay wells was 0.1, 0.2 or 0.4%. Assay plates were incubated for 24 hr in a cell culture incubator (37° C./5% CO2/85% humidity).
(§5) Step 4: At the 24 h assay endpoint, treatment media were discarded and 100 μl/well of luciferase detection reagent was added. Relative luminometer units (RLUs) were quantified from each assay well.

TRβ = target: T2, TRβ (Homo sapiens, UniProt P10828); experiment: Thyroid-hormone reporter-gene assay (Gal4-TR hybrid, luciferase), TRβ; type: cell-based; conditions: for T3-benchmarked selectivity index (T3-SI): EC50 (TRα)*T3-EC50 (TRβ)/EC50 (TRβ)*T3-EC50 (TRα), T3 in the same experiment; for EC50: HEK293-derived reporter cells, 24 hr incubation
T2 construct: expressed in transfected cells; host or cells: HEK293-derived reporter cells
T2 sequence (P10828 217-461 limits assumed): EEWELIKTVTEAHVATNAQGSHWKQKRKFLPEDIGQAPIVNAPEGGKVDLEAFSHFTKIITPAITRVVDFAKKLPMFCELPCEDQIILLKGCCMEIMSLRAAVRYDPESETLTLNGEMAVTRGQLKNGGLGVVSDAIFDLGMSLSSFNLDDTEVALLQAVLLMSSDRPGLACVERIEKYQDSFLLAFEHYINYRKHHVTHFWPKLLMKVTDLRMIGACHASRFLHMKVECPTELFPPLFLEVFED
Experimental: as §1, §2, §3, §4, §5

[1] = Tissue distribution study, brain concentration of parent acid after prodrug dosing; type: in vivo, male C57Bl/6 mice; conditions: 1 hr after SC dosing (0.1 mg/kg) of the prodrug; parent acid measured; compared to dichloro-prodrug and Sob-AM2 (FIG. 2)
Experimental: For tissue concentration studies in male C57Bl/6 mice, test compounds are formulated as NMP/solutol/PBS solution, at a concentration of 0.05 mg/mL and dosed at 2 mL/kg with the targeted dose of 0.100 mg/kg via SC injection or oral dosing. […] Tissue homogenates and plasma concentrations of test compounds are determined using LC-MS/MS with lower limits of quantitation of 0.0200 ng/mL or 0.100 ng/g. The pharmacokinetic parameters are determined by non-compartmental methods using WinNonlin.
FIG. 2 depicts brain levels of Compound 2 recorded 1 hr after SC dosing (0.1 mg/kg) of the corresponding prodrug Compound 3.

| Structure (SMILES) | EC50 (TRα) | T3-benchmarked selectivity index (T3-SI) (TRβ) | EC50 (TRβ) | brain concentration of the parent acid [1] | functional EC50 (TRβ) (TRβ; TR screening) |
| --- | --- | --- | --- | --- | --- |
| Cc1cc(OCC(=O)O)cc(Cl)c1Cc1ccc(O)c(C(C)C)c1 [Compound 2, 2-(3-chloro-4-(4-hydroxy-3-isopropylbenzyl)-5-methylphenoxy)acetic acid] | 100 to 1000 nM | ++ (3×<T3-SI≤30×) | 100 to 1000 nM |  |  |
| CNC(=O)COc1cc(C)c(Cc2ccc(O)c(C(C)C)c2)c(Cl)c1 [Compound 3, 2-(3-chloro-4-(4-hydroxy-3-isopropylbenzyl)-5-methylphenoxy)-N-methylacetamide] |  |  |  | dramatic increase in brain concentration of the parent acid |  |
| Cc1cc(OCC(=O)O)cc(Br)c1Cc1ccc(O)c(C(C)C)c1 [Compound 5, 2-(3-bromo-4-(4-hydroxy-3-isopropylbenzyl)-5-methylphenoxy)acetic acid] | 10 to 100 nM | ++ (3×<T3-SI≤30×) | 10 to 100 nM |  | equipotent with the di-bromo analog |
| CCc1cc(OCC(=O)O)cc(Cl)c1Cc1ccc(O)c(C(C)C)c1 [Compound 8, 2-(3-chloro-5-ethyl-4-(4-hydroxy-3-isopropylbenzyl)phenoxy)acetic acid] | 100 to 1000 nM | ++ (3×<T3-SI≤30×) | 10 to 100 nM |  |  |
| Cc1cc(OCC(=O)O)cc(C(F)(F)F)c1Cc1ccc(O)c(C(C)C)c1 [Compound 11, 2-(4-(4-hydroxy-3-isopropylbenzyl)-3-methyl-5-(trifluoromethyl)phenoxy)acetic acid] | 100 to 1000 nM | ++ (3×<T3-SI≤30×) | 10 to 100 nM |  |  |
| CCc1cc(OCC(=O)O)cc(C)c1Cc1ccc(O)c(C(C)C)c1 [Compound 16, 2-(3-ethyl-4-(4-hydroxy-3-isopropylbenzyl)-5-methylphenoxy)acetic acid] | 100 to 1000 nM | ++ (3×<T3-SI≤30×) | 10 to 100 nM |  |  |
| CC(C)c1cc(Cc2c(Cl)cc(OCC(=O)O)cc2C(F)(F)F)ccc1O [Compound 18, 2-(3-chloro-4-(4-hydroxy-3-isopropylbenzyl)-5-(trifluoromethyl)phenoxy)acetic acid] | 10 to 100 nM | ++ (3×<T3-SI≤30×) | 10 to 100 nM |  |  |
| C=C(C)c1cc(OCC(=O)O)cc(C)c1Cc1ccc(O)c(C(C)C)c1 [Compound 20, 2-(4-(4-hydroxy-3-isopropylbenzyl)-3-methyl-5-(prop-1-en-2-yl)phenoxy)acetic acid] | 100 to 1000 nM | ++ (3×<T3-SI≤30×) | 10 to 100 nM |  |  |
| Cc1cc(OCC(=O)O)cc(C(C)C)c1Cc1ccc(O)c(C(C)C)c1 [Compound 21, 2-(4-(4-hydroxy-3-isopropylbenzyl)-3-isopropyl-5-methylphenoxy)acetic acid] | 10 to 100 nM | ++ (3×<T3-SI≤30×) | 10 to 100 nM |  |  |
| C/C=C/c1cc(OCC(=O)O)cc(C)c1Cc1ccc(O)c(C(C)C)c1 [Compound 23, (E)-2-(4-(4-hydroxy-3-isopropylbenzyl)-3-methyl-5-(prop-1-enyl)phenoxy)acetic acid] | > 1000 nM | ++ (3×<T3-SI≤30×) | 100 to 1000 nM |  |  |
| CCCc1cc(OCC(=O)O)cc(C)c1Cc1ccc(O)c(C(C)C)c1 [Compound 25, 2-(4-(4-hydroxy-3-isopropylbenzyl)-3-methyl-5-propylphenoxy)acetic acid] | 100 to 1000 nM | ++ (3×<T3-SI≤30×) | 100 to 1000 nM |  |  |
| Cc1cc(OCC(=O)O)cc(C2CC2)c1Cc1ccc(O)c(C(C)C)c1 [Compound 27, 2-(3-cyclopropyl-4-(4-hydroxy-3-isopropylbenzyl)-5-methylphenoxy)acetic acid] | > 1000 nM | ++ (3×<T3-SI≤30×) | 100 to 1000 nM |  |  |
| C=C(C)c1cc(OCC(=O)O)cc(Cl)c1Cc1ccc(O)c(C(C)C)c1 [Compound 30, 2-(3-chloro-4-(4-hydroxy-3-isopropylbenzyl)-5-(prop-1-en-2-yl)phenoxy)acetic acid] | 100 to 1000 nM | ++ (3×<T3-SI≤30×) | 10 to 100 nM |  |  |
| CC(C)c1cc(Cc2c(Cl)cc(OCC(=O)O)cc2C(C)C)ccc1O [Compound 31, 2-(3-chloro-4-(4-hydroxy-3-isopropylbenzyl)-5-isopropylphenoxy)acetic acid] | 10 to 100 nM | ++ (3×<T3-SI≤30×) | < 10 nM |  |  |
